Experimental data reported in US8754257B2, “Pharmaceutical-grade ferric organic compounds, uses thereof and methods of making same” (GloboAsia, LLC, priority 2003, dated 2014).
“Also recorded” adds a separate entry of the source.

How the values were obtained:
[1] = system: patients with kidney disease; details: patients with kidney disease receiving doses of ferric citrate; cited from earlier work
[2] = system: patients with End Stage Renal Disease (ESRD); details: cited from earlier work
[3] = Intrinsic dissolution rate of ferric citrate; type: physicochemical; details: for Intrinsic Dissolution Rates: 37° C., solutions of pH 8
Description: The intrinsic dissolution rate is defined as the dissolution rate of pure substances under the condition of constant surface area. […] The measured intrinsic dissolution rate is dependent on these solid-state properties and is typically determined by exposing a constant surface area of a material to an appropriate dissolution medium while maintaining constant temperature, stirring rate, and pH.

[4] = BET active surface area measurement; type: physicochemical; details: for BET Active Surface Area: Table 2, one value per pair of samples -1/-2
Method: The analysis of active surface area is based on BET theory which describes the phenomenon of mass and energy interaction and phase changes during as adsorption onto solid surfaces and in pore spaces. In BET active surface area measurement, the volume of a monolayer of gas is determined which allows the surface area of the sample to be determined using the area occupied by a single layer of adsorbed gas molecule.

[5] = system: patients; assay: Clinical study of pharmaceutical-grade ferric citrate in patients in vivo; design: species or system human
Method: Ferric citrate is supplied in 500 mg capsules, whereas the placebo will be provided in identical-looking capsules (indistinguishable from those containing the active drug); the placebo capsules will contain sorbitol and colorant to match the powder color of the active capsules. The placebo capsule shells will be identical to the active capsule shells.
An non-limiting example of a dosing regimen is provided below. This is not meant to limit the invention as to how an effective amount of ferric citrate is selected, or the form in which it is provided or the frequency of administering the composition per day. The following merely illustrates how ferric citrate and placebo may be administered; e.g., as 500 mg capsules of identical appearance. All patients may receive (in a blinded fashion) 4 capsules with each of three meals, on a daily basis, for 28 days. Patients will be instructed to take the study medication within 10 minutes of finishing their meals (breakfast, lunch, and dinner).
• 4 placebo capsules, with breakfast. • 4 placebo capsules, with lunch. • 4 placebo capsules with dinner Ferric Citrate 2 g Per Day Arm of the Study • 1 ferric citrate capsule and 3 placebo capsules with breakfast • 1 ferric citrate capsule and 3 placebo capsules with lunch • 2 ferric citrate capsules and 2 placebo capsules with dinner Ferric Citrate 4 g Per Day Arm • 2 ferric citrate capsules and 2 placebo capsules with breakfast • 3 ferric citrate capsule and 1 placebo capsule with lunch • 3 ferric citrate capsules and 1 placebo capsule with dinner Ferric Citrate 6 g Per Day Arm • 4 ferric citrate capsules with breakfast • 4 ferric citrate capsules with lunch • 4 ferric citrate capsules with dinner B. Clinical Schedule and Assessments Duration of Study Treatment
Each patient's participation in the trial lasts for up to 8 weeks: the screening period (approximately 1-2 weeks), a 1-2 week washout, and 4 weeks of treatment with study medication.
The following procedures will be performed at the first screening visit: • 1. Medical history, including concomitant medications. • 2. Demographic data • 3. Physical examination, including height, weight, and vital signs. • 4. Dietary interview, using 24 hour recall method, to assess dietary intake of calcium and phosphorous, three times during screening period, to include one dialysis day, one non-dialysis day, and one weekend day. Note: Dietary interview may be also performed, in part or in whole, during the washout period. • 5. […]

ferric citrate
calcium deposits on the eye [1]: reversal of calcium deposits on the eye | GI symptoms ([2]; 3 g daily): mild, hut tolerable GI symptoms | change in serum P04 ([2]; 3 g daily): significant decrease in serum P04 | efficacy in reducing serum P04 compared with calcium carbonate (3 g daily) [2]: not as effective as calcium carbonate

ferric citrate [PAN031203A]
Intrinsic Dissolution Rates [3]: 3.82 mg/cm2/min

ferric citrate [PAN031203B]
Intrinsic Dissolution Rates [3]: 4.00 mg/cm2/min

ferric citrate [PAN031203C]
Intrinsic Dissolution Rates [3]: 2.68 mg/cm2/min

ferric citrate [PAN031203D]
Intrinsic Dissolution Rates [3]: 2.95 mg/cm2/min

ferric citrate [PAN031203E]
Intrinsic Dissolution Rates [3]: 3.13 mg/cm2/min

ferric citrate [RFS-12-1, reference compound]
BET Active Surface Area [4]: 0.61

ferric citrate [STM-134-1]
BET Active Surface Area [4]: 16.17

ferric citrate [STM-134]
Intrinsic Dissolution Rates [3]: 1.88 mg/cm2/min

ferric citrate [STM-182-1]
BET Active Surface Area [4]: 19.85

ferric citrate [ferric citrate of the present invention]
BET active surface area relative to commercially available ferric citrate [4]: at least 16 times | dissolution rate compared with commercially available ferric citrate ([3]; experiment simulating the alkaline condition in the small intestine): better dissolution rate than the commercially available ferric citrate | intrinsic dissolution rate relative to commercially available ferric citrate ([3]; pH 8.0): 3.08 times | adverse side effects compared with placebo ([5]; FIG. 12): not statistically different from chose associated with the placebo | adverse side effects / safety profile compared with chemical grade ferric citrate ([5]; oral capsules, FIG. 12, listed as pharmaceutical grade ferric citrate): less adverse clinical effects; also recorded: significantly more desirable safety profile | adverse side effects / safety profile compared with chemical grade ferric citrate ([5]; oral capsules, FIG. 12, listed as pharmaceutical-grade ferric citrate): less adverse side effects than chemical grade ferric citrate | efficacy compared with chemical grade ferric citrate ([5]; oral capsules, FIG. 13, listed as pharmaceutical-grade ferric citrate): approximately equal so that of chemical grade ferric citrate
